Source: patent US10562850B2, “Human plasma kallikrein inhibitors” (priority 2015, dated 2020)

What was measured:
[1] = tested on: patients with hereditary angioedema (HAE); conditions: cited from earlier work
[2] = tested on: rat models of arthritis; conditions: cited from earlier work
[3] = target: human plasma kallikrein (Homo sapiens (Human), UniProt P03952); experiment: Plasma Kallikrein Activity Assay (chromogenic substrate S2302); type: biochemical; conditions: 2 nM kallikrein, 80 μM S2302, 30° C., pH 7.8; Cheng-Prusoff
Method in brief: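 2 nM human plasma kallikrein incubated at 30° C with 80 μM S2302 and increasing compound concentrations in 50 mM Tris-HCl pH 7.8, 200 mM NaCl, 2.5 mM CaCl2. Activity read as absorbance change at 405 nm; four-parameter logistic fit, Ki by Cheng-Prusoff.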

[4] = tested on: animal model of ischemic stroke; conditions: cited from earlier work

human plasma kallikrein, sequence (P03952 391-638): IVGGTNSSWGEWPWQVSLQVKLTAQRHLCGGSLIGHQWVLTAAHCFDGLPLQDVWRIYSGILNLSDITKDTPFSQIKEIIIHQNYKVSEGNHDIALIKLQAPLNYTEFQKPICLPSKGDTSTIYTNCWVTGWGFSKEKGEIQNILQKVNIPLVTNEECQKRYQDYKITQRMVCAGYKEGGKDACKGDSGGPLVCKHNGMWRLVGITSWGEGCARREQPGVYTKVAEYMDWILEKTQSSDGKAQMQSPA
human plasma kallikrein, sequence (P03952 20-390 partner): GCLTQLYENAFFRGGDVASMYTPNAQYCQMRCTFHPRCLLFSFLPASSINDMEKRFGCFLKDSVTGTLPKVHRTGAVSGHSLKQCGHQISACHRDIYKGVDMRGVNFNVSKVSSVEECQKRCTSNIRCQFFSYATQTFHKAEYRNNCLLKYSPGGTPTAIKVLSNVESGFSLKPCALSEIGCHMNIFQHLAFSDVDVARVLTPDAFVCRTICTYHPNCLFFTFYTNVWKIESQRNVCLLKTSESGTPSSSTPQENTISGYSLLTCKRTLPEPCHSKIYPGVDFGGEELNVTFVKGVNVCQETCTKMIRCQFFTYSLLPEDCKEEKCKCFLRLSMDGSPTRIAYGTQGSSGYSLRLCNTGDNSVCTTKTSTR

Row | Compound | Ki [3] [µM] | also measured
1 | NC(N)=NCCC[C@@H](N)C(=O)N[C@@H](CCCN=C(N)N)C(=O)N1CCC[C@H]1C(=O)N1C[C@H](O)C[C@H]1C(=O)NCC(=O)N[C@@H](Cc1cccs1)C(=O)N[C@@H](CO)C(=O)N1Cc2ccccc2C[C@@H]1C(=O)N1[C@H](C(=O)N[C@@H](CCCN=C(N)N)C(=O)O)C[C@@H]2CCCC[C@@H]21 [Icatibant] |  | treating HAE [1]: effective in treating HAE
2 | Cl.NCC1CCC(C(=O)N[C@@H](Cc2ccccc2)C(=O)Nc2ccc(CC(=O)O)cc2)CC1 (stereo partly shown) [PKSI-527] |  | joint swelling [2]: reduce joint swelling
3 | CC(C)(C)[S@@+]([O-])NC(CCC1CC1)(c1cccc(C#N)c1)c1ccc(F)c(NC(=O)[C@H]2CCCN2C(=O)OCc2ccccc2)c1 (stereo partly drawn) [Compound 12b, (R)-benzyl 2-(5-((−)-1-(3-cyanophenyl)-3-cyclopropyl-1-((R)-1,1-dimethylethylsulfinamido)propyl)-2-fluorophenylcarbamoyl)pyrrolidine-1-carboxylate] | > 0.1 | 
4 | N#Cc1cccc(C(N)(CCC2CC2)c2ccc(F)c(NC(=O)[C@H]3CCCN3C(=O)Nc3ccc(Cl)cc3)c2)c1 (stereo partly drawn) [Compound 7c, (R)-N2-(5-((+)-1-amino-1-(3-cyanophenyl)-3-cyclopropylpropyl)-2-fluorophenyl)-N1-(4-chlorophenyl)pyrrolidine-1,2-dicarboxamide] | > 0.1 | 
5 | NC(CCC1CC1)(c1ccncc1)c1ccc(F)c(NC(=O)[C@H]2C[C@](O)(C3CC3)CN2C(=O)Nc2ccc(Cl)cn2)c1 (stereo partly drawn) [Compound 59d, (2R,4S)-N2-(5-((+)-1-amino-3-cyclopropyl-1-(pyridin-4-yl)propyl)-2-fluorophenyl)-N1-(5-chloropyridin-2-yl)-4-cyclopropyl-4-hydroxypyrrolidine-1,2-dicarboxamide] | < 0.05 | 
6 | CO[C@@H]1C[C@H](C(=O)Nc2cc(C(CCC3CC3)n3ccccc3=O)ccc2F)N(C(=O)Nc2ccc(Cl)cn2)C1 (stereo partly drawn) [Compound 42l, (2R,4R)-N1-(5-chloropyridin-2-yl)-N2-(5-(3-cyclopropyl-1-(2-oxopyridin-1(2H)-yl)propyl)-2-fluorophenyl)-4-methoxypyrrolidine-1,2-dicarboxamide] | < 0.05 | 
7 | NC(CCC1CC1)(c1ccncc1)c1ccc(F)c(NC(=O)[C@H]2C[C@H]3C[C@H]3N2)c1 (stereo partly drawn) [Compound 80c, (1R,3R,5R)-N-(5-((+)-1-amino-3-cyclopropyl-1-(pyridin-4-yl)propyl)-2-fluorophenyl)-2-azabicyclo[3.1.0]hexane-3-carboxamide] | 0.05 to 0.1 | 
8 | NC(CCC1CC1)(c1ccncc1)c1ccc(F)c(NC(=O)[C@H]2C[C@](O)(C(F)(F)F)CN2C(=O)Nc2ccc(Cl)cn2)c1 (stereo partly drawn) [Compound 54g, (2R,4R)-N2-(5-(1-amino-3-cyclopropyl-1-(pyridin-4-yl)propyl)-2-fluorophenyl)-N1-(5-chloropyridin-2-yl)-4-hydroxy-4-(trifluoromethyl)pyrrolidine-1,2-dicarboxamide] | < 0.05 | 
9 | N#Cc1cccc(C(N)(CCC2CC2)c2ccc(F)c(NC(=O)[C@H]3C[C@H](N)CN3C(=O)Nc3ccc(Cl)cc3)c2)c1 (stereo partly drawn) [Compound 33d, (2R,4S)-4-amino-N2-(5-((+)-1-amino-1-(3-cyanophenyl)-3-cyclopropylpropyl)-2-fluorophenyl)-N1-(4-chlorophenyl)pyrrolidine-1,2-dicarboxamide] | > 0.1 | 
10 | CC(C)(C)[S@@+]([O-])NC(CCC1CC1)(c1cccc(C#N)c1)c1ccc(F)c(NC(=O)[C@@H]2C[C@@H](O)CN2C(=O)Nc2ccc(Cl)cc2)c1 (stereo partly drawn) [Compound 5d, (2S,4R)-N1-(4-chlorophenyl)-N2-(5-((−)-1-(3-cyanophenyl)-3-cyclopropyl-1-((R)-1,1-dimethylethylsulfinamido)propyl)-2-fluorophenyl)-4-hydroxypyrrolidine-1,2-dicarboxamide] | > 0.1 | 
11 | O=C(Nc1ccccc1F)[C@H]1C[C@@H](O)CN1C(=O)Nc1ccc(Cl)cc1 [Compound 2a, (2R,4R)-N1-(4-chlorophenyl)-N2-(2-fluorophenyl)-4-hydroxypyrrolidine-1,2-dicarboxamide] | > 0.1 | 
12 | N#Cc1cccc(C(N)(CCC2CC2)c2ccc(F)c(NC(=O)[C@H]3C[C@@H](O)CN3C(=O)Nc3ccc(F)cc3)c2)c1 (stereo partly drawn) [Compound 24b, (2R,4R)-N2-(5-((+)-1-amino-1-(3-cyanophenyl)-3-cyclopropylpropyl)-2-fluorophenyl)-N1-(4-fluorophenyl)-4-hydroxypyrrolidine-1,2-dicarboxamide] | > 0.1 | 
13 | N#Cc1cccc(C(N)(CCC2CC2)c2ccc(F)c(NC(=O)[C@H]3C[C@@H](N)CN3C(=O)Nc3ccc(Cl)cc3)c2)c1 (stereo partly drawn) [Compound 19c, (2R,4R)-4-amino-N2-(5-((+)-1-amino-1-(3-cyanophenyl)-3-cyclopropylpropyl)-2-fluorophenyl)-N1-(4-chlorophenyl)pyrrolidine-1,2-dicarboxamide] | > 0.1 | 
14 | COc1ccc(NC(=O)N2C[C@H](OC)C[C@@H]2C(=O)Nc2cc(C(N)(CCC3CC3)c3cccc(C#N)c3)ccc2F)cc1 (stereo partly drawn) [Compound 16b, (2R,4R)-N2-(5-((+)-1-amino-1-(3-cyanophenyl)-3-cyclopropylpropyl)-2-fluorophenyl)-4-methoxy-N1-(4-methoxyphenyl)pyrrolidine-1,2-dicarboxamide] | > 0.1 | 
15 | CCNC(CCC1CC1)(c1ccccc1)c1ccc(F)c(NC(=O)[C@H]2C[C@@H](OC)CN2C(=O)Nc2ccc(Cl)cn2)c1 (stereo partly drawn) [Compound 67b, (2R,4R)-N1-(5-chloropyridin-2-yl)-N2-(5-((+)-3-cyclopropyl-1-(ethylamino)-1-phenylpropyl)-2-fluorophenyl)-4-methoxypyrrolidine-1,2-dicarboxamide] | > 0.1 | 
16 | NC(CCC1CC1)(c1ccc(F)c(NC(=O)[C@H]2C[C@](O)(c3ccccc3)CN2C(=O)Nc2ccc(Cl)cn2)c1)c1ccccn1 (stereo partly drawn) [Compound 32a, (2R,4S)-N2-(5-((+)-1-amino-3-cyclopropyl-1-(pyridin-2-yl)propyl)-2-fluorophenyl)-N1-(5-chloropyridin-2-yl)-4-hydroxy-4-phenylpyrrolidine-1,2-dicarboxamide] | < 0.05 | 
17 | CO[C@@H]1C[C@H](C(=O)Nc2cc(C(N)(CCC3CC3)c3ccncc3)ccc2F)N(C(=O)Nc2ccc(Cl)s2)C1 (stereo partly drawn) [Compound 81h, (2R,4R)-N2-(5-((−)-1-amino-3-cyclopropyl-1-(pyridin-4-yl)propyl)-2-fluorophenyl)-N1-(5-chlorothiophen-2-yl)-4-methoxypyrrolidine-1,2-dicarboxamide] | < 0.05 | 
18 | N#Cc1cccc(C(N)(CCC2CC2)c2ccc(F)c(NC(=O)[C@H]3C[C@](O)(c4ccccc4)CN3C(=O)Nc3ccc(Cl)cn3)c2)c1 (stereo partly drawn) [Compound 29e, (2R,4S)-N2-(5-((+)-1-amino-1-(3-cyanophenyl)-3-cyclopropylpropyl)-2-fluorophenyl)-N1-(5-chloropyridin-2-yl)-4-hydroxy-4-phenylpyrrolidine-1,2-dicarboxamide] | < 0.05 | 
19 | CO[C@]1(C(F)(F)F)C[C@H](C(=O)Nc2cc(C(N)(CCC3CC3)c3ccncc3)ccc2F)N(C(=O)Nc2ccc(Cl)cn2)C1 (stereo partly drawn) [Compound 57d, (2R,4R)-N2-(5-((+)-1-amino-3-cyclopropyl-1-(pyridin-4-yl)propyl)-2-fluorophenyl)-N1-(5-chloropyridin-2-yl)-4-methoxy-4-(trifluoromethyl)pyrrolidine-1,2-dicarboxamide] | < 0.05 | 
20 | NC(CCC1CC1)(c1cccnc1)c1ccc(F)c(NC(=O)[C@H]2C[C@@H](O)CN2C(=O)Nc2ccc(Cl)cc2)c1 (stereo partly drawn) [Compound 64g, (2R,4R)-N2-(5-((+)-1-amino-3-cyclopropyl-1-(pyridin-3-yl)propyl)-2-fluorophenyl)-N1-(4-chlorophenyl)-4-hydroxypyrrolidine-1,2-dicarboxamide] | < 0.05 | 
21 | N#Cc1cccc(C(N)(CCC2CC2)c2ccc(F)c(NC(=O)[C@@H]3CCCN3C(=O)Nc3ccc(Cl)cc3)c2)c1 (stereo partly drawn) [Compound 8c, (S)-N2-(5-((−)-1-amino-1-(3-cyanophenyl)-3-cyclopropylpropyl)-2-fluorophenyl)-N1-(4-chlorophenyl)pyrrolidine-1,2-dicarboxamide] | > 0.1 | 
22 | C[C@H]1C[C@H](C(=O)Nc2cc(C(N)(CCC3CC3)c3ccncc3)ccc2F)N(C(=O)Nc2ccc(Cl)cn2)C1 (stereo partly drawn) [Compound 48d, (2R,4S)-N2-(5-((+)-1-amino-3-cyclopropyl-1-(pyridin-4-yl)propyl)-2-fluorophenyl)-N1-(5-chloropyridin-2-yl)-4-methylpyrrolidine-1,2-dicarboxamide] | < 0.05 | 
23 | CC(C)(C)[S@@+]([O-])NC(CCC1CC1)(c1cccc(C#N)c1)c1ccc(F)c(NC(=O)[C@@H]2CCCN2C(=O)Nc2ccc(Cl)cc2)c1 (stereo partly drawn) [Compound 8b, (S)-N1-(4-chlorophenyl)-N2-(5-((−)-1-(3-cyanophenyl)-3-cyclopropyl-1-((R)-1,1-dimethylethylsulfinamido)propyl)-2-fluorophenyl)pyrrolidine-1,2-dicarboxamide] | > 0.1 | 
24 | ecallantide [DX-88] |  | edema in patients with hereditary angioedema (HAE) [1]: alleviates edema; brain edema, infarct volume, and neurological deficits [4]: reduced brain edema, infarct volume, and neurological deficits
